Assay results: US20050014824A1, “Pigment” (priority 2001, published 2005)
Each block holds one molecule with its values, some of them ahead of it.

Columns and labels:
salmonid fishes = details: cited from earlier work
[1] = system: enzymes from salmon intestines; assay: hydrolysis of astaxanthin omega-3 fatty acid diester by enzyme mixture from salmon intestines, optical isomer distribution by HPLC of dicamphanates; type: in vitro ADME, Salmo salar
Protocol: As described in Example 1 below, hydrolysis experiments were performed with a diester of synthetic astaxanthin with omega-3 fatty acids and a crude enzyme preparation from salmon intestines in the same way as described before (NO-309386). The reaction products were analysed with regard to stereoisomer composition.
A diester of astaxanthin was prepared by conventional chemical synthesis from commercially obtained synthetic astaxanthin and an omega-3 fatty acid concentrate containing more than 90% omega-3 fatty acids, mainly EPA (eicosapentaenoic acid) and DHA (docosahexaenoic acid). The astaxanthin used had been prepared by chemical synthesis, and the distribution of the optical isomers (3R,3′R), meso and (3S,3′S) was 25.9:50.2:23.9, respectively, determined as described for the diol fraction.
The starting astaxanthin diester was treated with a freshly prepared enzyme mixture from the intestines of recently fed salmon (Salmo salar) for 48 hours. The pigment was then separated into three fractions by preparative thin-layer chromatography; a diol fraction with both hydroxyl groups hydrolysed, a monoester fraction with one hydroxyl group hydrolysed, and a remaining diester fraction. The astaxanthin in the diol fraction was converted into the corresponding diesters of (−)-camphanic acid by reaction with (−)-camphanoyl chloride, and the distribution of astaxanthin optical isomers were determined by high-performance liquid chromatography (HPLC) of the dicamphanates. The astaxanthin in the monoester fraction was first converted to diol in a hydrolysis reaction catalysed by the enzyme cholesterol esterase and subsequently treated with (−)-camphanic acid and analysed as described above. Attempts to convert the astaxanthin in the remaining diester fraction to diol using cholesterol esterase were not successful, as complete conversion was not obtained. The distribution of optical isomers of astaxanthin in the remaining diester fraction was therefore not determined.

[2] = pigment fraction, enzyme treatment 48 hours, starting diester = before treatment

Structure (SMILES): CCCCCCCCCCCCCCCC(=O)O[C@H]1CC(C)(C)C(/C=C/C(C)=C/C=C/C(C)=C/C=C/C=C(C)/C=C/C=C(C)/C=C/C2=C(C)C(=O)[C@@H](OC(=O)CCCCCCCCCCCCCCC)CC2(C)C)=C(C)C1=O [dipalmitate, of (3R,3′R)-astaxanthin]
utilisation by salmonids (salmonid fishes; diet containing the ester form, compared with dipalmitate of (3S,3′S)-astaxanthin): better than dipalmitate of (3S,3′S)-astaxanthin

distribution of astaxanthin optical isomers: (3R,3′R) [1, 2]: 94.6
distribution of astaxanthin optical isomers: meso [1, 2]: 5.4
Structure (SMILES): CC1=C(/C=C/C(C)=C/C=C/C(C)=C/C=C/C=C(C)/C=C/C=C(C)/C=C/C2=C(C)C(=O)[C@@H](O)CC2(C)C)C(C)(C)C[C@H](O)C1=O [Diol (after enzyme treatment)]
predominant optical isomer of astaxanthin in the fraction (in words) ([1]; after enzyme treatment): almost exclusively the (3R,3′R)-configuration, with traces of the meso-form

Structure (SMILES): CC1=C(/C=C/C(C)=C/C=C/C(C)=C/C=C/C=C(C)/C=C/C=C(C)/C=C/C2=C(C)C(=O)[C@@H](O)CC2(C)C)C(C)(C)C[C@H](O)C1=O [astaxanthin]
absorption and deposition in the flesh of the optical isomers (salmonid fishes; in vivo): equally well absorbed and deposited
